What all share (assay): NCI-60 cell line screen, 48 h
In experiment [1] the test system is K-562 leukemia.
For experiment [2], the system named is HCT-116 colon.
Experiment [3] concerns CAKI-1 renal.
Experiment [4] concerns HCT-15 colon.
Experiment [5] concerns OVCAR-4 ovarian.
Experiment [6] has as its system SK-MEL-2 melanoma.
Experiment [7] deals with HS 578T breast.
Experiment [8] deals with UO-31 renal.
Experiment [9] deals with COLO 205 colon.
The test system of experiment [10] is HT29 colon.
The test system of experiment [11] is A549 NSCLC.
For experiment [12], the system named is LOX IMVI melanoma.
For experiment [13], the system named is NCI/ADR-RES ovarian.
The test system of experiment [14] is OVCAR-3 ovarian.
The subject of experiment [15] is A498 renal.
Experiment [16] has as its system EKVX NSCLC.
Experiment [17] relates to SN12C renal.
The subject of experiment [18] is HL-60(TB) leukemia.
Experiment [19] relates to HCC-2998 colon.

Structures are written as SMILES.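 Growth conditions: 96-well plates. Treatment: test compound, 48 hours, 5 concentrations. Analysis: linear interpolation between bracketing concentrations; unreached endpoints set to highest concentration. TGI marks complete inhibition of growth.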

Regarding `COc1cc(C2SC(N)=Nc3c2c(C)nn3C(=O)c2ccccc2O)cc(OC)c1OC` (centres undefined), the TGI in experiment [1], in experiment [2], in experiment [3], in experiment [4], in experiment [5] and in experiment [6] was greater than 10 µM throughout. Further, the TGI in experiment [7] is 8.53 µM; in experiment [8], greater than 10 µM; in [9], greater than 10 µM; in experiment [10], greater than 10 µM; in experiment [11], greater than 10 µM; in experiment [12], greater than 10 µM. Besides, the TGI in [13], in experiment [14], in [15], in experiment [16] and in experiment [17] was greater than 10 µM throughout.
For `Nc1ccc(S(=O)(=O)Nc2nnc(S(N)(=O)=O)s2)cc1`, the TGI in [2], in [18], in [3], in experiment [4], in experiment [5] and in experiment [8] was greater than 100 µM throughout. Also, the TGI in [9], in experiment [10], in experiment [11], in [12], in experiment [19] and in [13] was greater than 100 µM throughout. For the same molecule, the TGI in experiment [15] and in experiment [16] was greater than 100 µM each time.
For `O=P1(O)C=CC2(CCCC2)O1`, the TGI in experiment [1], in experiment [2], in [18], in [4], in experiment [5] and in experiment [6] was greater than 100 µM throughout. The TGI in [9], in [10], in experiment [11], in [12], in experiment [19] and in [13] was greater than 100 µM each time. In addition, the TGI in experiment [14], in experiment [15], in [16] and in [17] was greater than 100 µM each time.
In the case of `N#CN=C(N)c1sc2nc3c(c(-c4ccc(Br)cc4)c2c1N)CCCC3`, the TGI in experiment [1] was greater than 100 µM; in experiment [2], 33.1 µM; in experiment [3], 42.4 µM; in experiment [4] it was 44.7 µM; in [5] it was 26.9 µM; in experiment [6], 32.8 µM. The TGI in experiment [8] is 57.6 µM; in experiment [9] it was 44.8 µM; in experiment [10] it was 48.8 µM; in [11], greater than 100 µM; in experiment [12] it was 41.2 µM; in experiment [19] it was 60.3 µM. Moreover, the TGI came out at 80.1 µM in [13], 43.1 µM in experiment [15] and 58.1 µM in [17].
Take `OCC1OC(n2nc(-c3ccccc3)nc2-c2cnccn2)C(O)C(O)C1O` (centres undefined): the TGI in [1], in experiment [2], in experiment [18], in [4], in experiment [5] and in [8] was greater than 100 µM throughout. Besides, the TGI in experiment [9], in [10], in [11], in [12], in experiment [19] and in [13] was greater than 100 µM in each case. The TGI in experiment [14] and in [17] was greater than 100 µM throughout.
Consider `Nc1sc2c(c1C(=O)c1ccc(Cl)c(Cl)c1)CCCC2`, for which the TGI is greater than 100 µM in [1]; greater than 100 µM in [2]; 65.3 µM in [18]; greater than 100 µM in experiment [3]; greater than 100 µM in experiment [4]; greater than 100 µM in [5]. The TGI was 44.1 µM in experiment [6]; greater than 100 µM in [7]; greater than 100 µM in [8]; greater than 100 µM in experiment [9]; greater than 100 µM in experiment [10]; greater than 100 µM in [11]. Besides, the TGI is greater than 100 µM in [12]; 49.3 µM in experiment [19]; greater than 100 µM in experiment [14]; greater than 100 µM in experiment [16]; greater than 100 µM in experiment [17].
For `O=S(=O)(O)c1c(Cl)cc(O)c2ncccc12`, the TGI in [1], in [2], in experiment [3], in experiment [4], in experiment [5] and in experiment [6] was greater than 100 µM in each case. Further, the TGI in [8], in experiment [9], in [10], in [11], in [12] and in [19] was greater than 100 µM each time. In addition, the TGI in experiment [13], in experiment [14], in [15], in experiment [16] and in experiment [17] was greater than 100 µM in each case.
For `COc1ccc2nc3cc(Cl)ccc3c(NCCCN(Cc3cc(OC)c(OC)c(OC)c3)Cc3cc(OC)c(OC)c(OC)c3)c2c1`, the TGI turned out to be 3.77 µM in [1]; 1.7 µM in experiment [2]; 30.3 µM in experiment [3]; 72.1 µM in experiment [6]; 36.6 µM in experiment [7]; 26.1 µM in experiment [8]. Also, the TGI was determined as 23.5 µM in [9]; 16.6 µM in experiment [10]; 30.7 µM in experiment [11]; 37.3 µM in [19]; 86.5 µM in experiment [13]; 34.6 µM in experiment [14]. Moreover, the TGI in [16] stood at 37.4 µM; in experiment [17] it was 41 µM.
Take `Cc1cc(N(CCC#N)CCC#N)ccc1/C(N=Nc1ccc(Cl)cc1)=N\NC(=O)c1cc(Cl)ccc1O`: the TGI in experiment [1], in experiment [2], in [3], in experiment [4], in [5] and in experiment [6] was greater than 100 µM in each case. Also, the TGI in [7] was 56.2 µM; in experiment [8], greater than 100 µM; in experiment [9] it was greater than 100 µM; in [10], greater than 100 µM; in experiment [11] it was greater than 100 µM; in experiment [19], greater than 100 µM. Also, the TGI in experiment [13] is greater than 100 µM; in [14], 66.2 µM; in experiment [15], greater than 100 µM; in [16], greater than 100 µM; in [17], greater than 100 µM.
Turning to `CC(C)(C)c1cc(C(=O)Nc2cc(Br)c(Br)cc2S(N)(=O)=O)cc(C(C)(C)C)c1O`, the TGI worked out at 25.7 µM in experiment [1]; 20.5 µM in [2]; 22.8 µM in experiment [3]; 16.8 µM in experiment [4]; 28.7 µM in experiment [5]; 22.7 µM in experiment [6]. Besides, the TGI is 30.5 µM in experiment [7]; 24.7 µM in experiment [8]; 19.1 µM in [9]; 16.2 µM in experiment [10]; 21.3 µM in [11]; 19.4 µM in experiment [12]. In addition, the TGI is 18.1 µM in [19], 21.1 µM in experiment [14], 26.2 µM in [16] and 21.2 µM in experiment [17].
Turning to `Oc1ccc(-c2csc(NNC3=NC/C(=C/c4ccc5c(c4)OCO5)S3)n2)cc1O`, the TGI was greater than 100 µM in experiment [2]; 90.7 µM in experiment [3]; greater than 100 µM in experiment [4]; greater than 100 µM in experiment [5]; greater than 100 µM in [6]; 69.2 µM in experiment [8]. The TGI in experiment [9], in experiment [10], in [11], in experiment [12], in [19] and in [13] was greater than 100 µM throughout. Further, the TGI in experiment [16] and in experiment [17] was greater than 100 µM each time.
Consider `COc1cc(C=O)ccc1Oc1nnnn1-c1ccccc1`, for which the TGI in [1] was greater than 100 µM; in experiment [2], greater than 100 µM; in [3], 85.3 µM; in experiment [4], greater than 100 µM; in [5], greater than 100 µM; in [6], greater than 100 µM. Besides, the TGI in experiment [7], in experiment [8], in experiment [9], in experiment [10], in experiment [11] and in experiment [12] was greater than 100 µM in each case. In addition, the TGI in experiment [13], in experiment [14], in experiment [16] and in [17] was greater than 100 µM throughout.
Turning to `CC(=O)[C@@H]1[C@@H](OC(=O)CCC(C)COC2OC(CO)C(O)C(O)C2O)C[C@H]2[C@@H]3CC=C4C[C@@H](OC5OC(CO)C(OC6OC(C)C(O)C(O)C6O)C(O)C5OC5OC(C)C(O)C(O)C5O)CC[C@]4(C)[C@H]3CC[C@]12C` (some centres undefined), the TGI in experiment [1], in [2], in experiment [3], in experiment [5], in experiment [6] and in experiment [8] was greater than 100 µM in each case. Besides, the TGI in [9], in experiment [11], in experiment [12], in [19], in experiment [14] and in experiment [15] was greater than 100 µM each time. Further, the TGI in experiment [16] and in experiment [17] was greater than 100 µM in each case.
Turning to `CCOC(=O)c1cnn2c1ncc1c(=O)n(NC(N)=O)ccc12`, the TGI in [2], in experiment [18], in [3], in [4], in experiment [5] and in experiment [6] was greater than 100 µM in each case. Moreover, the TGI in [7], in experiment [8], in experiment [9], in [10], in experiment [11] and in experiment [12] was greater than 100 µM each time. The TGI in experiment [14], in experiment [15], in [16] and in experiment [17] was greater than 100 µM each time.
In the case of `CC[C@@]1(N(C)C)C(=O)OCc2c1cc1n(c2=O)Cc2cc3ccccc3nc2-1`, the TGI in [1] was greater than 100 µM; in experiment [2], greater than 100 µM; in [4], greater than 100 µM; in experiment [5] it was greater than 100 µM; in [6], 77.5 µM; in [8], 77 µM. Besides, the TGI in [9] was greater than 100 µM; in experiment [11] it was greater than 100 µM; in experiment [12] it was 33.5 µM; in experiment [19], greater than 100 µM; in experiment [13], 51.9 µM; in experiment [14], greater than 100 µM. The TGI in experiment [15] and in experiment [16] was greater than 100 µM throughout.
Regarding `Cc1cccc(C(C)C)c1NC(=O)C(=O)CC(=O)c1sc(Nc2ccccc2Cl)nc1C`, the TGI in [2] was greater than 100 µM; in experiment [18], 41 µM; in [3], greater than 100 µM; in experiment [4] it was greater than 100 µM; in experiment [5], greater than 100 µM; in [6] it was greater than 100 µM. In addition, the TGI in experiment [7] was greater than 100 µM; in experiment [8] it was greater than 100 µM; in [9], greater than 100 µM; in experiment [11], greater than 100 µM; in [12], greater than 100 µM; in experiment [19], 32.7 µM. In addition, the TGI in experiment [14], in experiment [15], in [16] and in [17] was greater than 100 µM throughout.
In the case of `O=c1sc2c(s1)SSSSS2`, the TGI in [1], in [2], in [3], in experiment [4], in [5] and in [6] was greater than 50 µM throughout. In addition, the TGI in experiment [8], in experiment [9], in [10], in experiment [11], in experiment [12] and in experiment [19] was greater than 50 µM each time. Moreover, the TGI in experiment [13], in experiment [14], in [15], in experiment [16] and in [17] was greater than 50 µM each time.

The record behind these values is PubChem BioAssay (NCI).
